This series in a line: Transmission test to the brain (brain uptake clearance, LC/MS). The series is classed as in vivo. The settings on record: male SD rat, 1 mg/kg intravenous. How it is done: PE50 tubes are independently inserted into the femoral vein and femoral artery of a 250 g male SD rat, and syringes individually containing physiological saline solution and heparin (25 I.U.) are connected to tubes, respectively. The macelignan isolated and purified in Example 1 was dissolved in DMSO, and intravenously administered into the rat in the amount of 1 mg/kg. 400 μl of the blood samples were collected from the artery at 0.5, 1, 1.5 and 2 minutes after administration. After last sampling, the head of the rat was rapidly cut, and the brain tissue was extracted and slightly washed with physiological saline solution.
The blood sample prepared in the Example <7-1> was centrifuged at 3,000 rpm for 5 minutes to obtain 100 μl of blood plasma. 500 μl of ethylacetate was added into the blood plasma and the mixture was agitated with a vortex mixer for 10 minutes. Then, the mixture was centrifuged at 3,000 rpm for 5 minutes to obtain 400 μl of the supernatant. […]
The weight of the brain tissue sample prepared in the Example <7-1> was measured, and then saline solution corresponding to the weight of 2 times higher than that of the brain tissue was added into the brain tissue and the mixture was homogenized. […]
The blood sample and brain tissue sample treated in the Example <7-2> were introduced into the LC/MS system, and then the LC/MS analysis was performed according to the method of the Example <7-3> and the area of a macelignan peak was obtained on the chromatograph. The concentration of macelignan was calculated by using the area of the macelignan peak through the standard curve prepared in the Example <7-3>.
In a time-concentration graph of macelignan obtained in the blood sample through the Example <7-4>, AUC0^t (Area Under Curve: AUC) from 0 to the last sample time “tlast”, was obtained with a trapezoidal method (Schaum's Outline of Mathematica, MaGraw-Hill, 2000). Additionally, the amount(Xb) of macelignan was calculated using the concentration of the brain tissue sample. AUC of macelignan may be calculated using the mathematical equation 1. […]

The record followed here is US20080275111A1, “Novel Use of Lignan Compounds” (priority 2005, published 2008).

Each structure is given as a SMILES string.

On to `COc1cc(C[C@H](C)[C@H](C)Cc2ccc3c(c2)OCO3)ccc1O` [macelignan, (8R,8′S)-7-(3,4-methylenedioxyphenyl)-7′-(4-hydroxy-3-methoxyphenyl)-8,8′-dimethylbutane], for which the clearance (brain and plasma, Xb/AUC, read-out: CLuptake (brain uptake clearance)) worked out at 0.203 ± 0.039 mL/min. Also, the “Xb (amount of macelignan in the brain)” value (brain taken after the 2 minute sample) is 7.90 ± 1.52 µg. The same molecule gave an AUC (plasma 0 to 2 minutes, trapezoidal method) of 648 ng·h/mL.

For orientation: clearance means the volume of plasma or blood freed of the substance per unit of time. What is called AUC is the area under the concentration-time curve, a measure of exposure. A low value points to low exposure.
